These results are taken from patent US7893043B2, “2-methylene-(17Z)-17(20)-dehydro-19,21-dinor-vitamin D analogs” (Wisconsin Alumni Research Foundation, priority 2008, dated 2011).

Assay [1] deals with 24-hydroxylase (24Ohase) gene promoter. Nature of the assay: In vitro transcription assay (24-hydroxylase promoter luciferase reporter in ROS 17/2.8 bone cells). Particulars: ROS 17/2.8 cells, FIG. 3, read-out: EC50, transcriptional activity in bone cells. In kind it is cell-based. As to the method:
Transcription activity was measured in ROS 17/2.8 (bone) cells that were stably transfected with a 24-hydroxylase (24Ohase) gene promoter upstream of a luciferase reporter gene (Arbour et al., 1998). Cells were given a range of doses. Sixteen hours after dosing the cells were harvested and luciferase activities were measured using a luminometer.
RLU=relative luciferase units.
A general note: Reporter assays use an easily measured gene product as a stand-in for the process of interest.

Assay [2] deals with intestinal calcium transport. Nature of the assay: Intestinal calcium transport, everted gut sac method. The format is in vivo, rat. To be noted: for intestinal calcium transport: everted gut sac. As to the method:
(§1) Male, weanling Sprague-Dawley rats were placed on Diet 11 (0.47% Ca) diet +AEK oil for one week followed by Diet 11 (0.02% Ca) +AEK oil for 3 weeks. The rats were then switched to a diet containing 0.47% Ca for one week followed by two weeks on a diet containing 0.02% Ca. Dose administration began during the last week on 0.02% calcium diet. Four consecutive ip doses were given approximately 24 hours apart. Twenty-four hours after the last dose, blood was collected from the severed neck and the concentration of serum calcium determined as a measure of bone calcium mobilization. The first 10 cm of the intestine was also collected for intestinal calcium transport analysis using the everted gut sac method.
Intestinal calcium transport was evaluated in the same groups of animals using the everted gut sac method (FIG. 5). […] Thus, it may be concluded that Vit II Z has essentially similar intestinal calcium transport activity at the recommended lower doses to that of 1,25(OH)2D3.

The next assay deals with HL-60 cells. Nature of the assay: HL-60 differentiation (nitro blue tetrazolium reduction). In kind it is cell-based, human. Particulars: differentiation of HL-60 cells into monocytes, FIG. 2, read-out: EC50, HL-60 cell differentiation. As to the method: The study drugs were dissolved in ethanol and the concentrations determined using UV spectrophotometry. Serial dilutions were prepared so that a range of drug concentrations could be tested without changing the final concentration of ethanol (≦0.2%) present in the cell cultures.
Human promyelocytic leukemia (HL60) cells were grown in RPMI-1640 medium containing 10% fetal bovine serum. The cells were incubated at 37° C. in the presence of 5% CO2.
HL60 cells were plated at 1.2×10^5 cells/ml. Eighteen hours after plating, cells in duplicate were treated with drug. Four days later, the cells were harvested and a nitro blue tetrazolium reduction assay was performed (Collins et al., 1979; J. Exp. Med. 149:969-974). The percentage of differentiated cells was determined by counting a total of 200 cells and recording the number that contained intracellular black-blue formazan deposits. Verification of differentiation to monocytic cells was determined by measuring phagocytic activity (data not shown).

The subject of assay [3] is bone calcium mobilization. Nature of the assay: Bone calcium mobilization (serum calcium) in vitamin D-deficient rats. In kind it is in vivo, rat. As to the method:
as §1
Calcium mobilization from bone and intestinal calcium absorption in vitamin D-deficient animals. Using vitamin D-deficient rats on a low calcium diet (0.02%), the activities of Vit II Z and 1,25(OH)2D3 in intestine and bone were tested. As expected, the native hormone (1,25(OH)2D3) increased serum calcium levels at all dosages (FIG. 4).

The target of assay [4] is T1, full-length recombinant rat vitamin D receptor (Rattus norvegicus, UniProt P13053).
T1 construct: Full-length recombinant rat receptor was expressed in E. coli BL21 (DE3) Codon Plus RIL cells; histidine tag (C); made in house; host or cells: E. coli BL21 (DE3) Codon Plus RIL
T1 sequence (P13053 1-423): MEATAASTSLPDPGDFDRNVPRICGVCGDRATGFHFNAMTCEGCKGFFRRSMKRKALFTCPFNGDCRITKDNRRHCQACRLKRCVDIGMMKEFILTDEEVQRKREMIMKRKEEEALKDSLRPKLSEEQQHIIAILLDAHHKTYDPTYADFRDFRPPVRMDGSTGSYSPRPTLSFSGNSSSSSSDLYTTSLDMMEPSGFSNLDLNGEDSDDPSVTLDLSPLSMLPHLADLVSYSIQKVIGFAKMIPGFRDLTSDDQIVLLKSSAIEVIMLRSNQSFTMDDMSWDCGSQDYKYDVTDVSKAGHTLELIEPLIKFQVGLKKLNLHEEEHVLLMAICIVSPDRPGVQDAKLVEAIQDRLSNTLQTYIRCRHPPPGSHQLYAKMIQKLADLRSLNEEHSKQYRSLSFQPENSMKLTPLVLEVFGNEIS
Nature of the assay: Vitamin D receptor binding, competition with [3H]-1,25(OH)2D3. Particulars: FIG. 1. As to the method: Full-length recombinant rat receptor was expressed in E. coli BL21 (DE3) Codon Plus RIL cells and purified to homogeneity using two different column chromatography systems. The first system was a nickel affinity resin that utilizes the C-terminal histidine tag on this protein. The protein that was eluted from this resin was further purified using ion exchange chromatography (S-Sepharose Fast Flow). Aliquots of the purified protein were quick frozen in liquid nitrogen and stored at −80° C. until use. For use in binding assays, the protein was diluted in TEDK50 (50 mM Tris, 1.5 mM EDTA, pH7.4, 5 mM DTT, 150 mM KCl) with 0.1% Chaps detergent. The receptor protein and ligand concentration were optimized such that no more than 20% of the added radiolabeled ligand was bound to the receptor.
Radiolabeled and unlabeled ligands were added to 100 mcl of the diluted protein at a final ethanol concentration of ≦10%, mixed and incubated overnight on ice to reach binding equilibrium. The following day, 100 mcl of hydroxylapatite slurry (50%) was added to each tube and mixed at 10-minute intervals for 30 minutes. […] After the final wash, the pellets were transferred to scintillation vials containing 4 ml of Biosafe II scintillation cocktail, mixed and placed in a scintillation counter. Total binding was determined from the tubes containing only radiolabeled ligand.

pEC50, pKi: −log10 of the molar value. Entries after “also recorded” stand apart in the source; their conditions may differ. Like-named read-outs stand apart in the source and are kept apart here.

For orientation: pEC50 means the EC50 on a negative log10 scale, so that one unit is a factor of ten. Turning to `C=C1/C(=C\C=C2/CCC[C@]3(C)[C@@H]([C@H](C)CCCC(C)(C)O)CC[C@@H]23)C[C@@H](O)C[C@@H]1O` [1α,25-dihydroxyvitamin D3, reference compound], the pEC50 in assay [1] was 9.70; with HL-60 cells it was 8.70. For the same compound, the intestinal calcium transport result in assay [2] (at the tested doses) is “significant increase”. The serum calcium levels entry in assay [3] (all dosages, rats on 0.02% Ca diet, FIG. 4) is recorded as “increased”.
Broadly, the pKi is the Ki on a negative log10 scale, so that one unit is a factor of ten. Regarding `C=C1[C@H](O)CC(=C/C=C2\CCC[C@]3(C)/C(=C\CCCC(C)(C)O)CC[C@@H]23)C[C@H]1O` [Vit II Z, 2-methylene-(17Z)-17(20)-dehydro-19,21-dinor-1α,25-dihydroxyvitamin D3], the pEC50 in assay [1] was 10.52; in the assay on HL-60 cells (Homo sapiens), 10.10. Further, the intestinal calcium transport entry in assay [2] (29 pmol/day) is “promotes intestinal calcium transport”; in assay [2] (2340 pmol/day), “very significant intestinal calcium transport activity”. Further, the “intestinal calcium transport activity compared to 1,25(OH)2D3” value in assay [2] (vitamin D-deficient rats, ip, FIG. 5) is given as “about the same or equal activity; also recorded: about the same as or equal to”. For the same compound, the “bone calcium mobilization activity compared to 1,25(OH)2D3” value in assay [3] (87 pmol/day and 780 pmol/day for 4 consecutive days, rats on 0.02% Ca diet) is given as “about the same as or equal to”; in assay [3] (vitamin D-deficient rats, ip, FIG. 4), “about the same or equal bone calcium mobilization activity”. Besides, the “bone calcium mobilization, effect of increasing the dose” value in assay [3] (2340 pmol/day, rats on 0.02% Ca diet) is given as “without any substantial additional effect”. Moreover, the “VDR binding affinity compared to 1,25-(OH)2D3” value in assay [4] was “nearly the same affinity”. For the same compound, the negative logarithm of the Ki (pKi) in assay [4] (full-length recombinant rat VDR) was 9.70.
